Reference: patent publication US11542273B2, “Amide compound having bet proteolysis-inducing action and medicinal application thereof” (MITSUBISHI TANABE PHARMA CORPORATION, priority 2018, dated 2023)
Read-outs that look alike come from different tables or passages of the source. Blank lines part the entries; values can stand above or below the compound they belong to.

What was measured:
[1] = tested on: human prostate cancer LNCaP cells; experiment: Cytotoxic action on cancer cells (WST-8, 96 hr); type: cell-based; settings: Homo sapiens, LNCaP, 96 h, read-out: LNCaP cytotoxic activity: IC50
Method in brief: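 Seed cells in 10% FBS/RPMI1640 and culture overnight (37° C, 5% CO2). Add test compound (DMSO stock diluted in medium). Culture further, then read viable cell number by WST-8. Derive IC50 from the straight line between survival points enclosing 50%.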

BRD4 protein = BRD4 protein (Homo sapiens (Human), UniProt O60885); experiment: BRD4 protein degradation inducing action in cancer cells (immunofluorescence, Operetta); type: cell-based; settings: LNCaP cells, 6 hr treatment, fluorescence intensity
Method in brief: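 LNCaP prostate cancer cells in 10% FBS/RPMI1640 were exposed to compound for 6 hr at 37° C, then fixed, permeabilized and immunostained for BRD4 with Alexa Fluor 488 or 546 secondary antibodies plus Hoechst nuclear stain. Fluorescence was read by high-content imaging; DC50 is the concentration giving 50% of untreated signal, interpolated linearly between bracketing points.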

[2] = tested on: human acute myeloid leukemia MV-4-11 cell transplanted mouse; experiment: Antitumor effect in human acute myeloid leukemia MV-4-11 cell transplanted mouse; type: in vivo; settings: MV4-11, iv, 360 h
Procedure: The in vivo antitumor effect of the compound of the present invention was studied using human acute myeloid leukemia MV-4-11 cell transplanted mouse. MV-4-11 cells were subcutaneously transplanted into the inguinal region of male, 6-week-old BALB/c nude mouse (5×10^6 cells/mouse). The compound of the present invention was administered into the tail vein on days 1, 5, 9, 13 from the time point when the assumed tumor volume determined from 1/2ab^2 (a is major axis and b is minor axis of tumor) reached about 100 mm^3 (day 1). The control group was administered with a solvent, 10% hydroxypropyl-β-cyclodextrin solution. On day 15, the tumor was isolated, the weight was measured, and the tumor growth inhibitory rate IR (%) was calculated by the following formula. tumor growth inhibitory rate IR (%)=(1−tumor weight of administration group/tumor weight of nonadministration control group)×100

[3] = read-out: tumor growth inhibitory rate

DC50 (BRD4 protein): 0.55 nM
Compound: COC(=O)C[C@@H]1N=C(c2ccc(N3CC[C@@H](C(=O)NCCOc4ccc5oc(C(=O)N[C@H](C(=O)N6C[C@H](O)C[C@H]6C(=O)N[C@@H](C)c6ccc(-c7scnc7C)cc6)C(C)(C)C)cc5c4)C3)cc2)c2c(sc(C)c2C)-n2c(C)nnc21 [Example 67, methyl [(6S)-4-(4-{(3R)-3-[(2-{[2-({(2S)-1-[(2S,4R)-4-hydroxy-2-({(1S)-1-[4-(4-methyl-1,3-thiazol-5-yl)phenyl]ethyl}carbamoyl)pyrrolidin-1-yl]-3,3-dimethyl-1-oxobutan-2-yl}carbamoyl]-1-benzofuran-5-yl]oxy}ethyl)carbamoyl]pyrrolidin-1-yl}phenyl)-2,3,9-trimethyl-6H-thieno[3,2-f][1,2,4]triazolo[4,3-a][1,4]diazepin-6-yl]acetate]
IC50 [1]: 0.47 nM
inhibition in vivo at 3 mg/kg ([2]; dose 3 mg/kg/day, tail vein on days 1, 5, 9, 13, tumor weight on day 15, read-out: tumor growth inhibitory rate): 97.7%

Compound: COC(=O)C[C@@H]1N=C(c2ccc(-c3ccc(OCC(=O)N[C@H](C(=O)N4C[C@H](O)C[C@H]4C(=O)NCc4ccc(-c5scnc5C)cc4)C(C)(C)C)cc3)cc2)c2c(sc(C)c2C)-n2c(C)nnc21 [Example 61, methyl [(6S)-4-{4′-[2-({(25)-1-[(2S,4R)-4-hydroxy-2-({[4-(4-methyl-1,3-thiazol-5-yl)phenyl]methyl}carbamoyl)pyrrolidin-1-yl]-3,3-dimethyl-1-oxobutan-2-yl}amino)-2-oxoethoxy][1,1′-biphenyl]-4-yl}-2,3,9-trimethyl-6H-thieno[3,2-f][1,2,4]triazolo[4,3-a][1,4]diazepin-6-yl]acetate]
IC50 [1]: 0.17 nM
DC50 (BRD4 protein): 0.81 nM
inhibition in vivo at 3 mg/kg [2, 3]: 97.2%

Compound: COC(=O)C[C@@H]1N=C(c2ccc(N3CC[C@H](C(=O)Nc4ccc5oc(C(=O)N[C@H](C(=O)N6C[C@H](O)C[C@H]6C(=O)N[C@@H](C)c6ccc(-c7scnc7C)cc6)C(C)(C)C)cc5c4)C3)cc2)c2c(sc(C)c2C)-n2c(C)nnc21 [Example 138, methyl [(6S)-4-{4-[(3S)-3-{[2-({(2S)-1-[(2S,4R)-4-hydroxy-2-({(1S)-1-[4-(4-methyl-1,3-thiazol-5-yl)phenyl]ethyl}carbamoyl)pyrrolidin-1-yl]-3,3-dimethyl-1-oxobutan-2-yl}carbamoyl)-1-benzofuran-5-yl]carbamoyl}pyrrolidin-1-yl]phenyl}-2,3,9-trimethyl-6H-thieno[3,2-f][1,2,4]triazolo[4,3-a][1,4]diazepin-6-yl]acetate]
IC50 [1]: 0.24 nM
DC50 (BRD4 protein): 0.62 nM
inhibition in vivo at 1 mg/kg [2, 3]: 97.8%
inhibition in vivo at 3 mg/kg [2, 3]: 98.6%

Compound: COC(=O)C[C@@H]1N=C(c2ccc(-c3ccc(C(=O)N[C@H](C(=O)N4C[C@H](O)C[C@H]4C(=O)N[C@@H](C)c4ccc(-c5scnc5C)cc4)C(C)(C)C)c(F)c3)cc2)c2c(sc(C)c2C)-n2c(C)nnc21 [Example 94, methyl {(6S)-4-[3′-fluoro-4′-({(2S)-1-[(2S,4R)-4-hydroxy-2-({(1S)-1-[4-(4-methyl-1,3-thiazol-5-yl)phenyl]ethyl}carbamoyl)pyrrolidin-1-yl]-3,3-dimethyl-1-oxobutan-2-yl}carbamoyl)[1,1′-biphenyl]-4-yl]-2,3,9-trimethyl-6H-thieno[3,2-f][1,2,4]triazolo[4,3-a][1,4]diazepin-6-yl}acetate]
IC50 [1]: 0.29 nM
DC50 (BRD4 protein): 0.64 nM
inhibition in vivo at 3 mg/kg [2, 3]: 98.2%

DC50 (BRD4 protein): 0.066 nM
Compound: COC(=O)C[C@@H]1N=C(c2ccc(-c3ccc(OCC(=O)N[C@H](C(=O)N4C[C@H](O)C[C@H]4C(=O)N[C@@H](C)c4ccc(-c5scnc5C)cc4)C(C)(C)C)cc3)cc2)c2c(sc(C)c2C)-n2c(C)nnc21 [Example 15, methyl [(6S)-4-{4′-[2-({(2S)-1-[(2S,4R)-4-hydroxy-2-({(1S)-1-[4-(4-methyl-1,3-thiazol-5-yl)phenyl]ethyl}carbamoyl)pyrrolidin-1-yl]-3,3-dimethyl-1-oxobutan-2-yl}amino)-2-oxoethoxy][1,1′-biphenyl]-4-yl}-2,3,9-trimethyl-6H-thieno[3,2-f][1,2,4]triazolo[4,3-a][1,4]diazepin-6-yl]acetate]
IC50 [1]: 0.083 nM
